Measured values from article PMC5267425, “Identification of small molecule modulators of HIV-1 Tat and Rev protein accumulation” (Retrovirology, 2017).
Several values for one entry are separate records, joined by “and”; a condition that tells them apart may be missing. Equal entries are not always repeated.

Tested on: cellular gene expression in HeLa rtTA HIV∆Mls cells
Settings: 9147791-treated cells, two replicates

For Cc1cc(NCc2cccnc2)n2ncc(-c3ccc(Cl)cc3)c2n1 [Compound 791, 3-(4-chlorophenyl)-5-methyl-N-(3-pyridinylmethyl)pyrazolo[1,5-a]pyrimidin-7-amine], the LYSMD1 expression level (gene LYSMD1) was 6.83 and 7.15, the MAP3K12 expression level (gene MAP3K12) was 10.58 and 11.11 and the MBD6 expression level (gene MBD6) was 19.55 and 19.21. For the same molecule, the MBLAC2 expression level (gene MBLAC2) was 3.53 and 3.60, the MED1 expression level (gene MED1) was 16.72 and 17.76 and the MKKS expression level (gene MKKS) was 33.76 and 31.64. The MLKL expression level (gene MLKL) was 8.65 and 8.80, the MORC2 expression level (gene MORC2) was 14.30 and 13.93 and the MRPL1 expression level (gene MRPL1) was 13.37 and 12.84. For the same molecule, the MRPS16 expression level (gene MRPS16) was 56.39 and 57.78, the MRPS18B expression level (gene MRPS18B) was 84.33 and 82.56 and the MSL1 expression level (gene MSL1) was 19.35 and 20.08. The MTIF2 expression level (gene MTIF2) was 23.18 and 24.37, the MXI1 expression level (gene MXI1) was 11.96 and 11.72 and the MYSM1 expression level (gene MYSM1) was 6.50 and 6.96. The NADK expression level (gene NADK) was 51.36 and 49.09, the NFX1 expression level (gene NFX1) was 16.88 and 17.47 and the NHLRC2 expression level (gene NHLRC2) was 5.90 and 6.13. The NR2C1 expression level (gene NR2C1) was 12.80 and 13.28, the NSMAF expression level (gene NSMAF) was 20.81 and 21.54 and the NT5DC3 expression level (gene NT5DC3) was 2.73 and 2.69. For the same molecule, the NUFIP2 expression level (gene NUFIP2) was 18.50 and 18.17, the OSMR expression level (gene OSMR) was 33.63 and 36.47 and the OTUD6B expression level (gene OTUD6B) was 9.61 and 9.84. The PATL1 expression level (gene PATL1) was 30.78 and 31.35, the PEX19 expression level (gene PEX19) was 25.90 and 26.36 and the PHF1 expression level (gene PHF1) was 27.67 and 28.09. The PIP4K2C expression level (gene PIP4K2C) was 17.91 and 18.93, the PLD3 expression level (gene PLD3) was 114.37 and 115.61 and the PLD6 expression level (gene PLD6) was 4.96 and 5.07. The PLEKHG4 expression level (gene PLEKHG4) was 9.09 and 8.55, the PLRG1 expression level (gene PLRG1) was 18.77 and 17.99 and the PNPO expression level (gene PNPO) was 12.32 and 11.96. For the same molecule, the POLR1B expression level (gene POLR1B) was 13.48 and 13.61, the PORCN expression level (gene PORCN) was 8.43 and 8.53 and the PPIE expression level (gene PPIE) was 36.69 and 37.52. The PPPDE1 expression level (gene PPPDE1) was 25.65 and 26.33, the PPPDE2 expression level (gene PPPDE2) was 24.63 and 25.91 and the PRDX5 expression level (gene PRDX5) was 527.71 and 539.87. The PRKAB1 expression level (gene PRKAB1) was 9.24 and 9.53, the PRKAB2 expression level (gene PRKAB2) was 9.63 and 9.56 and the PRKAG2 expression level (gene PRKAG2) was 4.40 and 4.65. The PRPF38B expression level (gene PRPF38B) was 24.17 and 23.91, the RAD23A expression level (gene RAD23A) was 139.22 and 133.17 and the RAD51C expression level (gene RAD51C) was 25.11 and 27.22. The RBM18 expression level (gene RBM18) was 22.42 and 23.14, the RDH14 expression level (gene RDH14) was 13.62 and 14.25 and the REPS1 expression level (gene REPS1) was 11.08 and 11.40. The RETSAT expression level (gene RETSAT) was 39.84 and 41.20, the RFNG expression level (gene RFNG) was 19.96 and 19.40 and the RILPL1 expression level (gene RILPL1) was 8.85 and 9.19. For the same molecule, the RIPK2 expression level (gene RIPK2) was 9.51 and 9.78, the RNF135 expression level (gene RNF135) was 6.73 and 6.55 and the RNF139 expression level (gene RNF139) was 14.33 and 14.56. The RNF146 expression level (gene RNF146) was 8.67 and 9.36, the RNF212 expression level (gene RNF212) was 23.40 and 24.53 and the RPRD1A expression level (gene RPRD1A) was 17.67 and 18.23. The RPUSD3 expression level (gene RPUSD3) was 51.54 and 51.13, the RTTN expression level (gene RTTN) was 5.05 and 5.18 and the RUNDC1 expression level (gene RUNDC1) was 7.46 and 7.03. The SDCCAG3 expression level (gene SDCCAG3) was 69.16 and 66.70, the SENP1 expression level (gene SENP1) was 10.13 and 10.39 and the SENP5 expression level (gene SENP5) was 9.14 and 9.80.
